Several values for one entry are separate records, joined by “and”; a condition that tells them apart may be missing. Equal values may be shown once. Toxic doses and inconclusive results are not listed.
Tested on: P388 leukemia ip, CD2F1 mice, survival T/C
Assay: NCI In Vivo Anticancer Drug Screen. Data for tumor model P388 Leukemia (intraperitoneal) in CD2F1 (CDF1) mice
Conditions: endpoint: median survival time, higher = longer survival
In short: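 Mice carrying the transplanted tumor received test compound or vehicle. Survival was recorded in each group, and the value is the treated-group measurement divided by that of the vehicle-treated control group.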

[1] = dose: 100.0 mg/kg/injection, schedule: Q04DX002 (ip), vehicle: saline with Tween-80
[2] = dose: 200.0 mg/kg/injection, schedule: Q04DX002 (ip), vehicle: saline with Tween-80
[3] = dose: 400.0 mg/kg/injection, schedule: Q04DX002 (ip), vehicle: saline with Tween-80
[4] = dose: 50.0 mg/kg/injection, schedule: Q01DX009 (ip), vehicle: saline
[5] = dose: 100.0 mg/kg/injection, schedule: Q01DX009 (ip), vehicle: saline
[6] = dose: 50.0 mg/kg/injection, schedule: Q01DX009 (ip), vehicle: Klucel (hydroxypropylcellulose) (HPC)
[7] = dose: 100.0 mg/kg/injection, schedule: Q01DX009 (ip), vehicle: Klucel (hydroxypropylcellulose) (HPC)
[8] = dose: 200.0 mg/kg/injection, schedule: Q01DX009 (ip), vehicle: Klucel (hydroxypropylcellulose) (HPC)
[9] = dose: 12.5 mg/kg/injection, schedule: Q01DX009 (ip), vehicle: saline with Tween-80
[10] = dose: 25.0 mg/kg/injection, schedule: Q01DX009 (ip), vehicle: saline with Tween-80
[11] = dose: 25.0 mg/kg/injection, schedule: Q01DX009 (ip), vehicle: saline
[12] = dose: 50.0 mg/kg/injection, schedule: Q01DX009 (ip), vehicle: saline with Tween-80
[13] = dose: 100.0 mg/kg/injection, schedule: Q01DX009 (ip), vehicle: saline with Tween-80
[14] = dose: 200.0 mg/kg/injection, schedule: Q01DX009 (ip), vehicle: saline
[15] = dose: 200.0 mg/kg/injection, schedule: Q01DX009 (ip), vehicle: water
[16] = dose: 100.0 mg/kg/injection, schedule: Q01DX001 (ip), vehicle: saline with Tween-80
[17] = dose: 200.0 mg/kg/injection, schedule: Q01DX001 (ip), vehicle: saline with Tween-80
[18] = dose: 400.0 mg/kg/injection, schedule: Q01DX001 (ip), vehicle: saline with Tween-80

In the case of `CC1(C(O)CO)C=C2CCC3C(C)(C)C(O)CCC3(C)C2CC1` (configuration not stated), the T/C (dose: 2.25 mg/kg/injection, schedule: Q01DX009 (ip), vehicle: Klucel (hydroxypropylcellulose) (HPC)) is reported as 108 % of control, the T/C (dose: 4.5 mg/kg/injection, schedule: Q01DX009 (ip), vehicle: Klucel (hydroxypropylcellulose) (HPC)) is reported as 103 % of control and the T/C (dose: 9.0 mg/kg/injection, schedule: Q01DX009 (ip), vehicle: Klucel (hydroxypropylcellulose) (HPC)) is reported as 103 % of control. For the same molecule, the T/C (dose: 18.0 mg/kg/injection, schedule: Q01DX009 (ip), vehicle: Klucel (hydroxypropylcellulose) (HPC)) was 93 % of control.

With `COC(=O)c1nnc(C(=O)OC)c2c1c1ccccc1n2C(C)=O` the T/C [1] was 99 % of control, the T/C [2] was 99 % of control and the T/C [3] was 99 % of control.

For `CCCN(CCC)CN(CCC)CCC`, the T/C [4] was 106 % of control and the T/C [5] was 105 % of control.

With `COC(=O)C1=C2Nc3ccccc3C23CCN2C(O)C4(CC5CC67CCOC6CCN6CCC8(c9cccc(OC)c9N(C4)C58O)C67)C4OCCC4(C1)C23` (configuration not stated) the T/C (dose: 3.12 mg/kg/injection, schedule: Q01DX005 (ip), vehicle: Klucel (hydroxypropylcellulose) (HPC)) was 96 % of control, the T/C (dose: 6.25 mg/kg/injection, schedule: Q01DX005 (ip), vehicle: Klucel (hydroxypropylcellulose) (HPC)) was 99 % of control and the T/C (dose: 12.5 mg/kg/injection, schedule: Q01DX005 (ip), vehicle: Klucel (hydroxypropylcellulose) (HPC)) was 99 % of control. For the same molecule, the T/C (dose: 25.0 mg/kg/injection, schedule: Q01DX005 (ip), vehicle: Klucel (hydroxypropylcellulose) (HPC)) was 87 % of control and 89 % of control.

For `COc1cccc(C2(O)CCCc3c(C)ccnc32)c1` (configuration not stated), the T/C (dose: 60.0 mg/kg/injection, schedule: Q01DX005 (ip), vehicle: Klucel (hydroxypropylcellulose) (HPC)) was 103 % of control, the T/C (dose: 120.0 mg/kg/injection, schedule: Q01DX005 (ip), vehicle: Klucel (hydroxypropylcellulose) (HPC)) was 112 % of control and the T/C (dose: 240.0 mg/kg/injection, schedule: Q01DX005 (ip), vehicle: Klucel (hydroxypropylcellulose) (HPC)) was 115 % of control.

With `CCOC(=O)/C=C/c1ccc(C(=O)OCC)[nH]1` the T/C (dose: 25.0 mg/kg/injection, schedule: Q01DX009 (ip), vehicle: Klucel (hydroxypropylcellulose) (HPC)) was 101 % of control, the T/C [6] was 100 % of control and the T/C [7] was 107 % of control. The T/C [8] was 97 % of control.

For `Clc1ccc(Cl)c(N=NNc2cc(Cl)ccc2Cl)c1`, the T/C [9] was 96 % of control, the T/C [10] was 99 % of control and the T/C [11] was 98 % of control. For the same molecule, the T/C [12] was 97 % of control, the T/C [4] was 94 % of control and the T/C [13] was 98 % of control. The T/C [5] was 92 % of control, the T/C (dose: 100.0 mg/kg/injection, schedule: Q04DX003 (ip), vehicle: saline with Tween-80) was 104 % of control and the T/C (dose: 200.0 mg/kg/injection, schedule: Q01DX009 (ip), vehicle: saline with Tween-80) was 88 % of control. The T/C [14] was 92 % of control, the T/C (dose: 200.0 mg/kg/injection, schedule: Q04DX003 (ip), vehicle: saline with Tween-80) was 104 % of control and the T/C (dose: 400.0 mg/kg/injection, schedule: Q04DX003 (ip), vehicle: saline with Tween-80) was 95 % of control.

With `C=C(NC(=O)c1csc(-c2nc3c(cc2O)-c2nc(cs2)C(=O)NC(C(C)O)C(=O)N/C(=C\C)c2nc(cs2)C(=O)NC2CC(O)C(=O)OCc4cccc5[nH]c(c(C)c45)C(=O)SCC(NC(=O)c4csc2n4)c2nc-3cs2)n1)C(N)=O` (configuration not stated) the T/C (dose: 15.0 mg/kg/injection, schedule: Q01DX009 (ip), vehicle: Klucel (hydroxypropylcellulose) (HPC)) was 100 % of control, the T/C (dose: 30.0 mg/kg/injection, schedule: Q01DX009 (ip), vehicle: Klucel (hydroxypropylcellulose) (HPC)) was 99 % of control and the T/C (dose: 60.0 mg/kg/injection, schedule: Q01DX009 (ip), vehicle: Klucel (hydroxypropylcellulose) (HPC)) was 91 % of control. For the same molecule, the T/C (dose: 120.0 mg/kg/injection, schedule: Q01DX009 (ip), vehicle: Klucel (hydroxypropylcellulose) (HPC)) was 88 % of control.

For `Cc1ccc(N=C(N)N/N=C/c2ccc3c(c2)Cc2ccccc2-3)cc1`, the T/C (dose: 25.0 mg/kg/injection, schedule: Q04DX002 (ip), vehicle: saline with Tween-80) was 106 % of control and the T/C (dose: 50.0 mg/kg/injection, schedule: Q04DX002 (ip), vehicle: saline with Tween-80) was 107 % of control.

With `CN(C)C(CC(=O)O)C(=O)O` (configuration not stated) the T/C (dose: 50.0 mg/kg/injection, schedule: Q01DX009 (ip), vehicle: water) was 108 % of control, the T/C (dose: 100.0 mg/kg/injection, schedule: Q01DX009 (ip), vehicle: water) was 98 % of control and the T/C [15] was 99 % of control.

For `COc1ccc2c3c1OC1C(O)C=CC4C(C2)N(C)CCC341` (configuration not stated), the T/C (dose: 3.12 mg/kg/injection, schedule: Q01DX009 (ip), vehicle: saline with Tween-80) was 102 % of control, the T/C (dose: 6.25 mg/kg/injection, schedule: Q01DX009 (ip), vehicle: saline with Tween-80) was 105 % of control and the T/C [9] was 112 % of control. For the same molecule, the T/C [10] was 114 % of control.

With `c1ccc(N2CCCN2c2ccccc2)cc1` the T/C [1] was 101 % of control, the T/C [2] was 99 % of control and the T/C [3] was 98 % of control.

In the case of `CN(C/C=C/CN(C)C(=S)Nc1ccccc1)C(=S)Nc1ccccc1`, the T/C (dose: 12.5 mg/kg/injection, schedule: Q01DX009 (ip), vehicle: saline) is reported as 95 % of control, the T/C [11] is reported as 106 % of control and the T/C (dose: 25.0 mg/kg/injection, schedule: Q01DX009 (ip), vehicle: suspension in saline) is reported as 91 % of control. For the same molecule, the T/C [4] was 90 % of control and the T/C (dose: 50.0 mg/kg/injection, schedule: Q01DX009 (ip), vehicle: suspension in saline) was 86 % of control and 87 % of control.

In the case of `N#Cc1c(O)c(-c2ccccc2)c(=O)n2c1[nH]c1ccccc12`, the T/C (dose: 50.0 mg/kg/injection, schedule: Q01DX005 (ip), vehicle: Klucel (hydroxypropylcellulose) (HPC)) is reported as 101 % of control, the T/C (dose: 100.0 mg/kg/injection, schedule: Q01DX005 (ip), vehicle: Klucel (hydroxypropylcellulose) (HPC)) is reported as 104 % of control and the T/C (dose: 200.0 mg/kg/injection, schedule: Q01DX005 (ip), vehicle: Klucel (hydroxypropylcellulose) (HPC)) is reported as 113 % of control.

For `Cc1cccnc1Br`, the T/C (dose: 25.0 mg/kg/injection, schedule: Q01DX009 (ip), vehicle: water) was 96 % of control and the T/C [15] was 89 % of control.

For `CC1(C)CC(=O)C=C(NCCCCCCCCNC2=CC(=O)CC(C)(C)C2)C1`, the T/C [6] was 95 % of control, the T/C [7] was 106 % of control and the T/C [8] was 100 % of control.

In the case of `Nc1ccc(Cn2ccc3c4c(N)nc(N)nc4ccc32)cc1`, the T/C (dose: 1.25 mg/kg/injection, schedule: Q01DX009 (ip), vehicle: saline with Tween-80) is reported as 106 % of control and 117 % of control, the T/C (dose: 2.5 mg/kg/injection, schedule: Q01DX009 (ip), vehicle: saline with Tween-80) is reported as 110 % of control and 111 % of control and 112 % of control and the T/C (dose: 5.0 mg/kg/injection, schedule: Q01DX009 (ip), vehicle: saline with Tween-80) is reported as 121 % of control. For the same molecule, the T/C (dose: 10.0 mg/kg/injection, schedule: Q01DX009 (ip), vehicle: saline with Tween-80) was 151 % of control and 186 % of control, the T/C (dose: 20.0 mg/kg/injection, schedule: Q01DX009 (ip), vehicle: saline with Tween-80) was 182 % of control and the T/C (dose: 40.0 mg/kg/injection, schedule: Q01DX009 (ip), vehicle: saline with Tween-80) was 105 % of control.

`Clc1ncnc2ccccc12` was tested, and the T/C (dose: 50.0 mg/kg/injection, schedule: Q01DX005 (ip), vehicle: saline with Tween-80) was 105 % of control and the T/C (dose: 100.0 mg/kg/injection, schedule: Q01DX005 (ip), vehicle: saline with Tween-80) was 89 % of control.

In the case of `CC(=N\O)/C(C)=N/Nc1ccccc1Cl`, the T/C [4] is reported as 98 % of control, the T/C [5] is reported as 104 % of control and the T/C [14] is reported as 89 % of control.

With `O=C(N/N=C/c1cc(Br)cc(Br)c1[O-])c1ccccc1.O=C(N/N=C/c1cc(Br)cc(Br)c1[O-])c1ccccc1.[Ni+2]` the T/C [16] was 90 % of control, the T/C [17] was 90 % of control and the T/C [18] was 94 % of control.

With `CCN(CC)CCC(=O)c1ccccc1` the T/C [9] was 102 % of control and 89 % of control, the T/C [10] was 108 % of control and the T/C [11] was 97 % of control. The T/C [12] was 109 % of control and 91 % of control, the T/C [4] was 96 % of control and the T/C [13] was 123 % of control.

`CN(C)CCN(C(=O)C(O)(c1ccccc1)c1ccccc1)c1ccccc1` was tested, and the T/C [4] was 100 % of control, the T/C [5] was 100 % of control and the T/C [14] was 107 % of control.

In the case of `Clc1ccccc1C=Nc1ccc(N=Cc2ccccc2Cl)cc1`, the T/C [1] is reported as 97 % of control, the T/C [2] is reported as 91 % of control and the T/C [3] is reported as 92 % of control.

For `O=C(Nc1ccccc1C(=O)Nc1ccccc1C(=O)O)c1cccnc1`, the T/C [1] was 109 % of control and the T/C [2] was 100 % of control.

`CCC(=O)Oc1ccc(N=Nc2ccc(O)c(/C=N\NC(=O)CNc3ccccc3)c2)cc1` was tested, and the T/C [16] was 88 % of control, the T/C [17] was 86 % of control and the T/C [18] was 100 % of control.
